Data published in US10681909B2, “Herbicidal triazoles” (FMC Corporation, priority 2014, dated 2020).

Legend:
[1] = system: crabgrass, Brazilian; assay: Test E postemergence; format: in vivo, Digitaria horizontalis; details: Brazil, scale 0 to 100
Description: (§1) Seeds of plant species selected from corn (Zea mays), soybean (Glycine max), lambsquarters (Chenopodium album), poinsettia, wild (wild poinsettia, Euphorbia heterophylla), pigweed, palmer (palmer pigweed, Amaranthus palmeri), waterhemp (common waterhemp, Amaranthus rudis), surinam grass (Brachiaria decumbens), crabgrass, large (large crabgrass, Digitaria sanguinalis), crabgrass, Brazilian (Brazilian crabgrass, Digitaria horizontalis), panicum, fall (fall panicum, Panicum dichotomiflorum), foxtail, giant (giant foxtail, Setaria faberii), foxtail, green (green foxtail, Setaria viridis), goosegrass (Eleusine indica), johnsongrass (Sorghum halepense), ragweed (common ragweed, Ambrosia elatior), barnyardgrass (Echinochloa crus-galli), sandbur (southern sandbur, Cenchrus echinatus), arrowleaf sida (Sida rhombifolia), ryegrass, Italian (Italian ryegrass, Lolium multiflorum), dayflower, VA (Virginia dayflower, Commelina virginica), field bindweed (Convolvulus arvensis), cocklebur (common cocklebur, Xanthium strumarium), morningglory (Ipomoea coccinea), nightshade (eastern black nightshade, Solanum ptycanthum), kochia (Kochia scoparia), nutsedge, yellow (yellow nutsedge, Cyperus esculentus), smartweed (ladysthumb smartweed, Polygonum persicaria), velvetleaf (Abutilon theophrasti), horseweed (Conyza canadensis), and beggarticks (hairy beggarticks, Bidens pilosa), were planted into a silt loam soil and treated preemergence with test chemicals formulated in a non-phytotoxic solvent mixture which included a surfactant.
(§2) At the same time, plants from these crop and weed species and also waterhemp_RES1, (ALS & Triazine resistant common waterhemp, Amaranthus rudis), and waterhemp_RES2, (ALS & HPPD resistant common waterhemp, Amaranthus rudis) were planted in pots containing Sunshine Redi-Earth® planting medium comprising spaghnum peat moss, vermiculite, starter nutrients and dolomitic limestone were treated with postemergence applications of test chemicals formulated in the same manner. Plants ranged in height from 2 to 18 cm for postemergence treatments (1- to 4-leaf stage). Treated plants and controls were maintained in a greenhouse for 14 to 21 d, after which time all species were compared to controls and visually evaluated. Plant response ratings, summarized in Table E, are based on a scale of 0 to 100 where 0 is no effect and 100 is complete control. A dash (-) response means no test result.

[2] = system: ragweed; assay: Test E postemergence; format: in vivo, Ambrosia elatior; details: scale 0 to 100
Description: as §1, §2

[3] = system: kochia; assay: Test E postemergence; format: in vivo, Kochia scoparia; details: scale 0 to 100
Description: as §1, §2

[4] = system: beggarticks; assay: Test E postemergence; format: in vivo, Bidens pilosa; details: scale 0 to 100
Description: as §1, §2

[5] = system: barnyardgrass; assay: Test E postemergence; format: in vivo, Echinochloa crus-galli; details: scale 0 to 100
Description: as §1, §2

[6] = system: pigweed, palmer; assay: Test E postemergence; format: in vivo, Amaranthus palmeri; details: scale 0 to 100
Description: as §1, §2

[7] = system: sandbur; assay: Test E postemergence; format: in vivo, Cenchrus echinatus; details: scale 0 to 100
Description: as §1, §2

[8] = system: panicum, fall; assay: Test E postemergence; format: in vivo, Panicum dichotomiflorum; details: scale 0 to 100
Description: as §1, §2

[9] = system: goosegrass; assay: Test E preemergence; format: in vivo, Eleusine indica; details: scale 0 to 100
Description: as §1, §2

[10] = system: crabgrass, large; assay: Test E preemergence; format: in vivo, Digitaria sanguinalis; details: scale 0 to 100
Description: as §1, §2

[11] = system: beggarticks; assay: Test E preemergence; format: in vivo, Bidens pilosa; details: scale 0 to 100
Description: as §1, §2

[12] = system: crabgrass, Brazilian; assay: Test E preemergence; format: in vivo, Digitaria horizontalis; details: Brazil, scale 0 to 100
Description: as §1, §2

[13] = system: kochia; assay: Test E preemergence; format: in vivo, Kochia scoparia; details: scale 0 to 100
Description: as §1, §2

[14] = system: corn; assay: Test E preemergence; format: in vivo, Zea mays; details: scale 0 to 100
Description: as §1, §2

[15] = system: morningglory; assay: Test E preemergence; format: in vivo, Ipomoea coccinea; details: scale 0 to 100
Description: as §1, §2

[16] = system: surinam grass; assay: Test E preemergence; format: in vivo, Brachiaria decumbens; details: scale 0 to 100
Description: as §1, §2

[17] = system: dayflower, VA; assay: Test E preemergence; format: in vivo, Commelina virginica; details: scale 0 to 100
Description: as §1, §2

[18] = system: soybean; assay: Test E preemergence; format: in vivo, Glycine max; details: scale 0 to 100
Description: as §1, §2

[19] = system: ragweed; assay: Test E preemergence; format: in vivo, Ambrosia elatior; details: scale 0 to 100
Description: as §1, §2

[20] = system: barnyardgrass; assay: Test E preemergence; format: in vivo, Echinochloa crus-galli; details: scale 0 to 100
Description: as §1, §2

## COc1nc(-c2ccc(Cl)cc2)nn1Cc1ccnc(C(F)(F)F)c1 [Compound 28]
[1]; 31 g ai/ha
  Plant response rating: 40
[1]; 62 g ai/ha
  Plant response rating: 50
[1]; 125 g ai/ha
  Plant response rating: 50
[1]; 250 g ai/ha
  Plant response rating: 50
[2]; 31 g ai/ha
  Plant response rating: 40
[2]; 62 g ai/ha
  Plant response rating: 40
[2]; 125 g ai/ha
  Plant response rating: 40
[2]; 250 g ai/ha
  Plant response rating: 50
[3]; 31 g ai/ha
  Plant response rating: 90
[3]; 62 g ai/ha
  Plant response rating: 95
[3]; 125 g ai/ha
  Plant response rating: 95
[3]; 250 g ai/ha
  Plant response rating: 95
[4]; 31 g ai/ha
  Plant response rating: 50
[4]; 62 g ai/ha
  Plant response rating: 60
[4]; 125 g ai/ha
  Plant response rating: 50
[4]; 250 g ai/ha
  Plant response rating: 60
[5]; 31 g ai/ha
  Plant response rating: 20
[5]; 62 g ai/ha
  Plant response rating: 25
[5]; 125 g ai/ha
  Plant response rating: 40
[5]; 250 g ai/ha
  Plant response rating: 40
[6]; 31 g ai/ha
  Plant response rating: 100
[6]; 62 g ai/ha
  Plant response rating: 90
[6]; 125 g ai/ha
  Plant response rating: 90
[6]; 250 g ai/ha
  Plant response rating: 95
[7]; 31 g ai/ha
  Plant response rating: 20
[7]; 62 g ai/ha
  Plant response rating: 30
[7]; 125 g ai/ha
  Plant response rating: 30
[7]; 250 g ai/ha
  Plant response rating: 40
[8]; 31 g ai/ha
  Plant response rating: 15
[8]; 62 g ai/ha
  Plant response rating: 20
[8]; 125 g ai/ha
  Plant response rating: 20
[8]; 250 g ai/ha
  Plant response rating: 20

## CCc1nc(-c2ccc(C(F)(F)F)cc2)nn1Cc1ccnc(C(F)(F)F)c1 [Compound 1, 4-[[5-ethyl-3-[4-(trifluoromethyl)phenyl]-1H-1,2,4-triazol-1-yl]methyl]-2-(trifluoromethyl)pyridine]
[9]; 16 g ai/ha
  Plant response rating: 50
[9]; 31 g ai/ha
  Plant response rating: 60
[9]; 62 g ai/ha
  Plant response rating: 60
[9]; 125 g ai/ha
  Plant response rating: 75
[9]; 250 g ai/ha
  Plant response rating: 100
[10]; 16 g ai/ha
  Plant response rating: 60
[10]; 31 g ai/ha
  Plant response rating: 75
[10]; 62 g ai/ha
  Plant response rating: 80
[10]; 125 g ai/ha
  Plant response rating: 95
[10]; 250 g ai/ha
  Plant response rating: 100
[1]; 16 g ai/ha
  Plant response rating: 20
[1]; 31 g ai/ha
  Plant response rating: 20
[1]; 62 g ai/ha
  Plant response rating: 30
[1]; 125 g ai/ha
  Plant response rating: 30
[1]; 250 g ai/ha
  Plant response rating: 40
[11]; 16 g ai/ha
  Plant response rating: 0
[11]; 31 g ai/ha
  Plant response rating: 0
[11]; 62 g ai/ha
  Plant response rating: 0
[11]; 125 g ai/ha
  Plant response rating: 20
[11]; 250 g ai/ha
  Plant response rating: 60
[12]; 62 g ai/ha
  Plant response rating: 98
[12]; 125 g ai/ha
  Plant response rating: 98
[12]; 250 g ai/ha
  Plant response rating: 100
[13]; 16 g ai/ha
  Plant response rating: 20
[13]; 31 g ai/ha
  Plant response rating: 60
[13]; 62 g ai/ha
  Plant response rating: 80
[13]; 125 g ai/ha
  Plant response rating: 90
[13]; 250 g ai/ha
  Plant response rating: 95
[14]; 16 g ai/ha
  Plant response rating: 0
[14]; 31 g ai/ha
  Plant response rating: 0
[14]; 62 g ai/ha
  Plant response rating: 10
[14]; 125 g ai/ha
  Plant response rating: 25
[14]; 250 g ai/ha
  Plant response rating: 35
[15]; 16 g ai/ha
  Plant response rating: 10
[15]; 31 g ai/ha
  Plant response rating: 40
[15]; 125 g ai/ha
  Plant response rating: 60
[15]; 250 g ai/ha
  Plant response rating: 100
[16]; 16 g ai/ha
  Plant response rating: 0
[16]; 31 g ai/ha
  Plant response rating: 0
[16]; 62 g ai/ha
  Plant response rating: 10
[16]; 125 g ai/ha
  Plant response rating: 20
[16]; 250 g ai/ha
  Plant response rating: 20
[17]; 16 g ai/ha
  Plant response rating: 5
[17]; 31 g ai/ha
  Plant response rating: 15
[17]; 62 g ai/ha
  Plant response rating: 25
[17]; 125 g ai/ha
  Plant response rating: 65
[17]; 250 g ai/ha
  Plant response rating: 80
[18]; 16 g ai/ha
  Plant response rating: 0
[18]; 31 g ai/ha
  Plant response rating: 0
[18]; 62 g ai/ha
  Plant response rating: 0
[18]; 125 g ai/ha
  Plant response rating: 10
[18]; 250 g ai/ha
  Plant response rating: 35
[4]; 16 g ai/ha
  Plant response rating: 20
[4]; 31 g ai/ha
  Plant response rating: 40
[4]; 62 g ai/ha
  Plant response rating: 40
[4]; 125 g ai/ha
  Plant response rating: 50
[4]; 250 g ai/ha
  Plant response rating: 60
[5]; 16 g ai/ha
  Plant response rating: 10
[5]; 31 g ai/ha
  Plant response rating: 10
[5]; 62 g ai/ha
  Plant response rating: 15
[5]; 125 g ai/ha
  Plant response rating: 20
[5]; 250 g ai/ha
  Plant response rating: 30
[6]; 16 g ai/ha
  Plant response rating: 80
[6]; 31 g ai/ha
  Plant response rating: 90
[6]; 62 g ai/ha
  Plant response rating: 90
[6]; 125 g ai/ha
  Plant response rating: 100
[6]; 250 g ai/ha
  Plant response rating: 100
[19]; 16 g ai/ha
  Plant response rating: 0
[19]; 31 g ai/ha
  Plant response rating: 10
[19]; 62 g ai/ha
  Plant response rating: 35
[19]; 125 g ai/ha
  Plant response rating: 65
[19]; 250 g ai/ha
  Plant response rating: 75
[7]; 16 g ai/ha
  Plant response rating: 10
[7]; 31 g ai/ha
  Plant response rating: 15
[7]; 62 g ai/ha
  Plant response rating: 15
[7]; 125 g ai/ha
  Plant response rating: 20
[7]; 250 g ai/ha
  Plant response rating: 20
[20]; 16 g ai/ha
  Plant response rating: 0
[20]; 31 g ai/ha
  Plant response rating: 10
[20]; 62 g ai/ha
  Plant response rating: 30
[20]; 125 g ai/ha
  Plant response rating: 30
[20]; 250 g ai/ha
  Plant response rating: 50
[8]; 16 g ai/ha
  Plant response rating: 10
[8]; 31 g ai/ha
  Plant response rating: 20
[8]; 62 g ai/ha
  Plant response rating: 20
[8]; 125 g ai/ha
  Plant response rating: 20
[8]; 250 g ai/ha
  Plant response rating: 30
